The text below walks through data of ChEMBL document CHEMBL3593244, “Design, synthesis and preliminary bioactivity evaluations of substituted quinoline hydroxamic acid derivatives as novel histone deacetylase (HDAC) inhibitors” (Bioorg Med Chem, 2015).

The term IC50 denotes the point on the concentration scale where inhibition reaches its midpoint.

In assay [1] the target is Histone deacetylase (HDAC1 and HDAC2) (Homo sapiens, UniProt Q13547+Q92769). Description: Inhibition of HDAC1/2 in human HeLa cell nuclear extracts preincubated for 5 mins followed by substrate addition measured after 0.5 hrs by Color de Lys assay. The assay is classed as cell-based.
Another assay relates to PC-3. Briefly: cells. Conditions: Homo sapiens, PC-3, 48 h. In kind it is functional, cell-based.
For another assay, the system named is A549. Description: cells. The assay is classed as functional, cell-based. The settings on record: Homo sapiens, A549, 48 h.
In a further assay the test system is K562. Description: cells. The settings on record: Homo sapiens, K562, 48 h. The assay is classed as functional, cell-based.
For the next assay, the system named is MDA-MB-231. Briefly: Cytotoxicity against human MDA-MB-231 cells assessed as inhibition of cell proliferation after 48 hrs by MTT assay. Conditions: MDA-MB-231, 48 h. In kind it is functional, cell-based. In general terms: Formazan colour is commonly taken as a measure of viable cells.

Description for A549: Cytotoxicity against human A549 cells assessed as inhibition of cell proliferation after 48 hrs by MTT assay
Description for K562: Cytotoxicity against human K562 cells assessed as inhibition of cell proliferation after 48 hrs by MTT assay
Description for PC-3: Cytotoxicity against human PC3 cells assessed as inhibition of cell proliferation after 48 hrs by MTT assay

In the case of `O=C(CCCC(=O)NCc1cc(C(=O)NCc2ccccc2)c2ccccc2n1)NO`, the IC50 in assay [1] was above 1000 nM. Same read-out and setting: under `O=C(CCCCC(=O)NCc1cc(C(=O)NCc2ccccc2)c2ccccc2n1)NO` stands above 1000 nM; under `O=C(CCCCCC(=O)NCc1cc(C(=O)NCc2ccccc2)c2ccccc2n1)NO`, 399 nM; under `O=C(CCCCCCC(=O)NCc1cc(C(=O)NCc2ccccc2)c2ccccc2n1)NO`, 780 nM. Take `O=C(CCCCCCCC(=O)NCc1cc(C(=O)NCc2ccccc2)c2ccccc2n1)NO`: the IC50 in assay [1] is reported as above 1000 nM. Same read-out and setting: under `O=C(CCCCCC(=O)NCc1cc(C(=O)Nc2ccccc2)c2ccccc2n1)NO` stands 301 nM; under `O=C(CCCCCCC(=O)NCc1cc(C(=O)Nc2ccccc2)c2ccccc2n1)NO`, 562 nM; under `CCCCNC(=O)c1cc(CNC(=O)CCCCCC(=O)NO)nc2ccccc12`, 444 nM. With `CCCCNC(=O)c1cc(CNC(=O)CCCCCCC(=O)NO)nc2ccccc12`, the IC50 in assay [1] is above 1000 nM. On the same count and under the same terms, under `CNC(=O)c1cc(CNC(=O)CCCCCC(=O)NO)nc2ccccc12` stands 642 nM; under `CNC(=O)c1cc(CNC(=O)CCCCCCC(=O)NO)nc2ccccc12`, above 1000 nM. The same measure, in the same setting: under `O=C(CCCCCC(=O)NCc1cc(C(=O)NCc2ccccc2)c2cc(Br)ccc2n1)NO` stands 343 nM; under `O=C(CCCCCCC(=O)NCc1cc(C(=O)NCc2ccccc2)c2cc(Br)ccc2n1)NO`, above 1000 nM.

In assay [1], `O=C(CCCCCCCC(=O)NCc1cc(C(=O)NCc2ccccc2)c2cc(Br)ccc2n1)NO` gave an IC50 above 1000 nM. In assay [1], `O=C(CCCCCC(=O)NCc1cc(C(=O)Nc2ccccc2)c2cc(Br)ccc2n1)NO` had an IC50 of 196 nM. The same measure, in the same setting: next, `O=C(CCCCCCC(=O)NCc1cc(C(=O)Nc2ccccc2)c2cc(Br)ccc2n1)NO`: above 1000 nM; `O=C(CCCC(=O)NCc1ccc2ccccc2n1)NO`: above 1000 nM. The same measure, in the same setting: next, `O=C(CCCCC(=O)NCc1ccc2ccccc2n1)NO`: above 1000 nM; `O=C(CCCCCC(=O)NCc1ccc2ccccc2n1)NO`: 266 nM.

Consider `O=C(CCCCCCC(=O)NCc1ccc2ccccc2n1)NO`, for which, in assay [1], the IC50 is reported as 678 nM. The same measure, in the same setting: under `O=C(CCCCCC(=O)NCc1ccc2cc(F)ccc2n1)NO` stands 155 nM. For the molecule `O=C(CCCCCC(=O)NCc1ccc2cc(Cl)ccc2n1)NO`, the IC50 turned out to be 9130 nM with PC-3; 2710 nM in the assay on A549; 3390 nM in the assay with K562; 120 nM in assay [1]; 1840 nM with MDA-MB-231. The like results for `O=C(CCCCCC(=O)NCc1ccc2cc(Br)ccc2n1)NO` were, in that order, 9260 nM, 3890 nM, 4860 nM, 85 nM and 900 nM. In assay [1], `O=C(CCCCCCC(=O)NCc1ccc2cc(Br)ccc2n1)NO` yielded a concentration for half-maximal inhibition (IC50) of 146 nM.

Turning to `O=C(CCCCCC(=O)NCc1ccc2cc(I)ccc2n1)NO`, the IC50 in the assay with PC-3 is 8480 nM; in the assay on A549, 2580 nM; in the assay with K562, 2450 nM; in assay [1], 132 nM; in the assay on MDA-MB-231, 1410 nM. On to `O=C(CCCCCC(=O)NCc1cc(C(=O)NCc2ccccc2)c2cc(-c3ccccc3)ccc2n1)NO`, for which, in assay [1], the IC50 is recorded as 341 nM. In turn, `O=C(CCCCCC(=O)NCc1ccc2cc(-c3ccccc3)ccc2n1)NO` yielded an IC50 in assay [1] of 152 nM.
